{"source": "patent EP0230023B1", "about": "“Pharmaceutical compositions for the enhancement of wound healing” (MARION MERRELL DOW INC., priority 1985, dated 1987)", "key": {"collagen": {"test_system": "collagen", "assay": "Sucrose octasulfate induced collagen fibrillogenesis (stopped-flow turbidity)", "format": "biochemical", "excerpt": "Sucrose octasulfate-induced collagen fibril formation was studied in a spectrophotometer equipped with a stopped-flow apparatus. […]"}, "granulation tissue": {"test_system": "granulation tissue", "assay": "Subcutaneous Ivalon sponge implantation, histological analysis of granulation tissue formation", "format": "in vivo, Sprague-Dawley rats", "details": "no collagen"}}, "note": "Several values for one entry are separate records, joined by “and”; a condition that tells them apart may be missing. Equal values may be shown once.", "data": [{"smiles": "O=S(=O)([O-])OC[C@H]1O[C@@](COS(=O)(=O)[O-])(O[C@H]2O[C@H](COS(=O)(=O)[O-])[C@@H](OS(=O)(=O)[O-])[C@H](OS(=O)(=O)[O-])[C@H]2OS(=O)(=O)[O-])[C@@H](OS(=O)(=O)[O-])[C@@H]1OS(=O)(=O)[O-].[K+].[K+].[K+].[K+].[K+].[K+].[K+].[K+]", "note": "[Sucrose Octasulfate, potassium sucrose octasulfate]", "values": [{"measurement": "moles of sucrose octasulfate per mole of collagen initiating the reaction", "setting": "collagen", "value": "five"}, {"measurement": "critical concentration (lower concentration required for initiation of fibrillogenesis of collagen)", "setting": "collagen; collagen 0.5 mg/ml, pH 7.4", "value": 0.01, "unit": "mg/ml"}, {"measurement": "fibrillogenesis at pH 3.0 compared with pH 7.4", "setting": "collagen; pH 3.0", "value": "Identical results"}, {"measurement": "time to dissociation of the transient complex", "setting": "collagen; sucrose octasulfate 0.01 mg/ml, collagen 0.5 mg/ml", "value": "≤ 100", "unit": "ms"}, {"measurement": "time of formation of collagen fibrils", "setting": "collagen; sucrose octasulfate 0.2 mg/ml, collagen 0.5 mg/ml, pH 7.4", "value": "60 to 70 ms and 60 to 75 ms"}, {"measurement": "hemorrhage in sponge", "setting": "granulation tissue; 10.0 mg/ml sucrose octasulfate in Hydron", "value": "local hemorrhage"}, {"measurement": "histologic appearance of sponge (granulation tissue)", "setting": "granulation tissue; 50 µl of Hydron containing either 1.0 mg/ml or 0.1 mg/ml sucrose octasulfate", "value": "formation of granulation tissue densely populated with fibroblasts and highly vascularized with new capillary growth"}]}]}
